Source: ChEMBL document CHEMBL5303766, “Data for DCP probe FHT-2344” (2022)

Legend:
[1] = molecular target: Serine/threonine-protein kinase Chk2 (Homo sapiens) (UniProt O96017); experiment: CHEK2 SGC Tm panel (DSF); details: for ΔTm: Compound concentration 10.0 uM
[2] = molecular target: Ephrin type-A receptor 5 (Homo sapiens) (UniProt P54756); experiment: EPHA5 SGC Tm panel (DSF); details: for ΔTm: Compound concentration 10.0 uM
[3] = molecular target: T1, Dual specificity mitogen-activated protein kinase kinase 4 (Homo sapiens) (UniProt P45985); experiment: MAP2K4 SGC Tm panel (DSF); details: for ΔTm: Compound concentration 10.0 uM
T1 sequence (whole entry): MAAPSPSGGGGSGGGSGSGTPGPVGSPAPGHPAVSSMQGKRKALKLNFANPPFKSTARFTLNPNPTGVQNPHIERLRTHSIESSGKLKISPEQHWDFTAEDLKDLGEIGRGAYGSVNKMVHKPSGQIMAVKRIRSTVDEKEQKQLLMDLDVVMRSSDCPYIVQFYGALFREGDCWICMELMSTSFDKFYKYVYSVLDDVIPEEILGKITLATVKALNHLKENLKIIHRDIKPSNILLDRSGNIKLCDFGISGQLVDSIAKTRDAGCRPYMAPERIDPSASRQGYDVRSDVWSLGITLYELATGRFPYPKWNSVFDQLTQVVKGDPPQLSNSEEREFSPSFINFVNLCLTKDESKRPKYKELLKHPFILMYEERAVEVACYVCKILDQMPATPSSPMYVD

[4] = molecular target: Mitogen-activated protein kinase 9 (Homo sapiens) (UniProt P45984); experiment: MAPK9 SGC Tm panel (DSF); details: for ΔTm: Compound concentration 10.0 uM
[5] = molecular target: T2, MAP/microtubule affinity-regulating kinase 4 (Homo sapiens) (UniProt Q96L34); experiment: MARK4 SGC Tm panel (DSF); details: for ΔTm: Compound concentration 10.0 uM
T2 sequence (whole entry): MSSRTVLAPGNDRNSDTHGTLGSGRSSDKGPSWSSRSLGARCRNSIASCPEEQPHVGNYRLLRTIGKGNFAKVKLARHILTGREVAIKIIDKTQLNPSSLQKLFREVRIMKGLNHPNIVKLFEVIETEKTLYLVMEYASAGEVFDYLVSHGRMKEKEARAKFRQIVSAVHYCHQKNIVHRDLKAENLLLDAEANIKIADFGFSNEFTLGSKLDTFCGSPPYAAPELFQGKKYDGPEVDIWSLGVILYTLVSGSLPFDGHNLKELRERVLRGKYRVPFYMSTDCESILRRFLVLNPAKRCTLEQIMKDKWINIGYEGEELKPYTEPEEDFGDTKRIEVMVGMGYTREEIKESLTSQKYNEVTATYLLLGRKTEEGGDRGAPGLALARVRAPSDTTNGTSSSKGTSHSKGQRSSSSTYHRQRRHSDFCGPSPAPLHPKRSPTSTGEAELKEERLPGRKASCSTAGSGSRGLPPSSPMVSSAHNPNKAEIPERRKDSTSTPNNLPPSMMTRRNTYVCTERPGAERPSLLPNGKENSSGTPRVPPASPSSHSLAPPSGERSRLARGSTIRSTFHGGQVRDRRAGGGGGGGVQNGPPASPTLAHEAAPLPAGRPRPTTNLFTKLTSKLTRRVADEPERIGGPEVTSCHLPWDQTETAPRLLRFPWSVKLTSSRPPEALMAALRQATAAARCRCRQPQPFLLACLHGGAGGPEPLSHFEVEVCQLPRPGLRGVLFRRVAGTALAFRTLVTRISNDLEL

[6] = molecular target: Vascular endothelial growth factor receptor 1 (Homo sapiens) (UniProt P17948); experiment: FLT1 SGC Tm panel (DSF); details: for ΔTm: Compound concentration 10.0 uM
[7] = molecular target: BMP-2-inducible protein kinase (Homo sapiens) (UniProt Q9NSY1); experiment: BMP2K SGC Tm panel (DSF); details: for ΔTm: Compound concentration 10.0 uM
[8] = molecular target: Calcium/calmodulin-dependent protein kinase type 1G (Homo sapiens) (UniProt Q96NX5); experiment: CAMK1G SGC Tm panel (DSF); details: for ΔTm: Compound concentration 10.0 uM
[9] = molecular target: T3, Serine/threonine-protein kinase 4 (Homo sapiens) (UniProt Q13043); experiment: STK4 SGC Tm panel (DSF); details: for ΔTm: Compound concentration 10.0 uM
T3 sequence (whole entry): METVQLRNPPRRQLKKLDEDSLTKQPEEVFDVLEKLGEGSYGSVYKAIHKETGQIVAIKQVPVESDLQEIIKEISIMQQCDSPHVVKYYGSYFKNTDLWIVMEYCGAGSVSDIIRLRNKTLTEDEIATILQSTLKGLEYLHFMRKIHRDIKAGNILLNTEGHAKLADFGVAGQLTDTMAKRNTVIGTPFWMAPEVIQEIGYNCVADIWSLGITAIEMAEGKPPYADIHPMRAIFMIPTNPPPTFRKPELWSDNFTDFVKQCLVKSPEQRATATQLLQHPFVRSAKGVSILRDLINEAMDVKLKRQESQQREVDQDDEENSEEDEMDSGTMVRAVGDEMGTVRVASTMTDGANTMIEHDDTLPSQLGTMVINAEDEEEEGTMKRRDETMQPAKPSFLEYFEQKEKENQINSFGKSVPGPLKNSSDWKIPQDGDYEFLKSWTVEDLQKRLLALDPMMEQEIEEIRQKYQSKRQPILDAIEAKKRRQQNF

[10] = molecular target: Casein kinase I isoform epsilon (Homo sapiens) (UniProt P49674); experiment: CSNK1E SGC Tm panel (DSF); details: for ΔTm: Compound concentration 10.0 uM
[11] = molecular target: T4, Ferrochelatase, mitochondrial (Homo sapiens) (UniProt P22830); experiment: FECH SGC Tm panel (DSF); details: for ΔTm: Compound concentration 10.0 uM
T4 sequence (whole entry): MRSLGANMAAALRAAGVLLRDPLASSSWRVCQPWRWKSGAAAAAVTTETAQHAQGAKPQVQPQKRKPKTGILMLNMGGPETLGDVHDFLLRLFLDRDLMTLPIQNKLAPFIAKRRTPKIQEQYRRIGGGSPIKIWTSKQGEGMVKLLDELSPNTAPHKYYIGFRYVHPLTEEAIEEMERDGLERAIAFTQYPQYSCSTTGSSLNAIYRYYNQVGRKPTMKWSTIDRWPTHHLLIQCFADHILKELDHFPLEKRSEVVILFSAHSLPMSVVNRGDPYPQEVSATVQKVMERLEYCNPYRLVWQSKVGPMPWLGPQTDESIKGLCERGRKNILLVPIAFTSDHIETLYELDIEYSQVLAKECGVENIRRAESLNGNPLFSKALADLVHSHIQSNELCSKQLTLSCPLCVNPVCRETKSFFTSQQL

[12] = molecular target: 5-hydroxytryptamine receptor 1D (Homo sapiens) (UniProt P28221); details: Compound concentration 10.0 uM
[13] = molecular target: 5-hydroxytryptamine receptor 6 (Homo sapiens) (UniProt P50406); details: Compound concentration 10.0 uM
[14] = molecular target: Alpha-1B adrenergic receptor (Homo sapiens) (UniProt P35368); details: Compound concentration 10.0 uM
[15] = molecular target: Beta-2 adrenergic receptor (Homo sapiens) (UniProt P07550); details: Compound concentration 10.0 uM

Mitogen-activated protein kinase 9 (Homo sapiens), sequence (P45984 whole entry, looked up): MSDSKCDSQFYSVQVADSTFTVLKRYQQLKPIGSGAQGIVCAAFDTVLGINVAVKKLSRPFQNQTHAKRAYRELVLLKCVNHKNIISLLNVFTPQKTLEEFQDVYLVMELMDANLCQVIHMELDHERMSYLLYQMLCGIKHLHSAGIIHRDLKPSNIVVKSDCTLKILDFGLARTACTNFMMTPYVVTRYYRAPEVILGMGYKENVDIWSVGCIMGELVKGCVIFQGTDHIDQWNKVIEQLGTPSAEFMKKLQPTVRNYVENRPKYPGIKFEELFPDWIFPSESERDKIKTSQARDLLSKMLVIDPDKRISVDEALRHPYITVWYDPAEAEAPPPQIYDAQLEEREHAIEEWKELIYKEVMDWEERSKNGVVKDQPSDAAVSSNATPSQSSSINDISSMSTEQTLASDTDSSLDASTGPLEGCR
BMP-2-inducible protein kinase (Homo sapiens), sequence (Q9NSY1 whole entry, looked up): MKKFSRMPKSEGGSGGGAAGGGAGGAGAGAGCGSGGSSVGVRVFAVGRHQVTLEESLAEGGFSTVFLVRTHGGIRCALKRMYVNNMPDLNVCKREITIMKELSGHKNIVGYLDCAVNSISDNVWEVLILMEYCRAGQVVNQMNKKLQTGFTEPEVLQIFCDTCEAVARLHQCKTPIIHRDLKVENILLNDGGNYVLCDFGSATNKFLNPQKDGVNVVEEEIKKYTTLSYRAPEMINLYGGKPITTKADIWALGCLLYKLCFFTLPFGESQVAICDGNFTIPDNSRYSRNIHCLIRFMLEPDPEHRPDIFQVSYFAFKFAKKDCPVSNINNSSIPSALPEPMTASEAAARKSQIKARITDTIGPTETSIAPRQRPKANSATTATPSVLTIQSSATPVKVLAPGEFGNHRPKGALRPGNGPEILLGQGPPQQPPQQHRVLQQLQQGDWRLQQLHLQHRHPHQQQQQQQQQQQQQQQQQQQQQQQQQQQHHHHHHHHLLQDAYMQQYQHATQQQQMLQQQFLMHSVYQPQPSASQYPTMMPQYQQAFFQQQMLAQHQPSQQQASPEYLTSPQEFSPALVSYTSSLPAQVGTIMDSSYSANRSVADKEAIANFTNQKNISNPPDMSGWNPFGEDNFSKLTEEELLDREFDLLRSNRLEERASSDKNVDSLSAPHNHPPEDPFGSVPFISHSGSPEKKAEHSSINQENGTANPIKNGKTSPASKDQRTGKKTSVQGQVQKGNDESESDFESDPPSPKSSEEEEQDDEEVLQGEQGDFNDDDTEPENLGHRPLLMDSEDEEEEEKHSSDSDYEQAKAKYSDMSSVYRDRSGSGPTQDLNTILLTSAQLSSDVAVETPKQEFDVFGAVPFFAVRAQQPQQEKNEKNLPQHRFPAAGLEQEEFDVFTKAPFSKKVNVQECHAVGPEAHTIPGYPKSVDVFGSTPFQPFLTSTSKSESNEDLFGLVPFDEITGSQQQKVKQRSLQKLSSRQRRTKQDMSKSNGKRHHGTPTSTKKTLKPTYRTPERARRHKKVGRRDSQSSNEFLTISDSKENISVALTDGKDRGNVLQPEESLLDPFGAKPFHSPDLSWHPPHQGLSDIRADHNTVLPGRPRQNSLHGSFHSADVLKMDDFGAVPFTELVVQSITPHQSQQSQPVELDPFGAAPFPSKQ
Ephrin type-A receptor 5 (Homo sapiens), sequence (P54756 whole entry): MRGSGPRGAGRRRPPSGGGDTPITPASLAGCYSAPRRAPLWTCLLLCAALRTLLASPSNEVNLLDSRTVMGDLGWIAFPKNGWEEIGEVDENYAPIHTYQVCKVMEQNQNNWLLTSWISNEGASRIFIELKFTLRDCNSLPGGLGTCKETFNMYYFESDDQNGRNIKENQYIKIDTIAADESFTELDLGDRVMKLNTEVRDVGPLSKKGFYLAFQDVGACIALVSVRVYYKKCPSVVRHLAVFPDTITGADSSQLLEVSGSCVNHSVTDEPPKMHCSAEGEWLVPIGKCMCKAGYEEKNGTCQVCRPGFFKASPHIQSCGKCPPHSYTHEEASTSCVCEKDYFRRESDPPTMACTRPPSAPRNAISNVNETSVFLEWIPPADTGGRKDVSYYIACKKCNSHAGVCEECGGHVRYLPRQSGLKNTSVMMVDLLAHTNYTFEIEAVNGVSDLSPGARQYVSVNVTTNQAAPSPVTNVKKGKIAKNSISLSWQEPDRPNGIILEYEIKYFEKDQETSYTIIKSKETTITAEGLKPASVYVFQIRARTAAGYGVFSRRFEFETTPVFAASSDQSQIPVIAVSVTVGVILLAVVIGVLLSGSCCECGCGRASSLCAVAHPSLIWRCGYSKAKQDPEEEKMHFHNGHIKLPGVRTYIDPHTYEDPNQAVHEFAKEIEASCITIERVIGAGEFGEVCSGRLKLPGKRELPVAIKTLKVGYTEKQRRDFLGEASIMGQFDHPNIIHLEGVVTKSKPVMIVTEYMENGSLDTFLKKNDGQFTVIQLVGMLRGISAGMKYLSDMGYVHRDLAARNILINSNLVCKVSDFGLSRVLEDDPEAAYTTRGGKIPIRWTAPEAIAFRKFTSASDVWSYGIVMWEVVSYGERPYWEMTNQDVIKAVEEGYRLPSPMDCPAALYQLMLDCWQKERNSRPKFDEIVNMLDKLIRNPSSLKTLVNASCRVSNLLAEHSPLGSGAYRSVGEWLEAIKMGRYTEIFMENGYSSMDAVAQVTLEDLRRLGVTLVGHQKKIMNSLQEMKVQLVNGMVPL
Casein kinase I isoform epsilon (Homo sapiens), sequence (P49674 whole entry, looked up, canonical isoform): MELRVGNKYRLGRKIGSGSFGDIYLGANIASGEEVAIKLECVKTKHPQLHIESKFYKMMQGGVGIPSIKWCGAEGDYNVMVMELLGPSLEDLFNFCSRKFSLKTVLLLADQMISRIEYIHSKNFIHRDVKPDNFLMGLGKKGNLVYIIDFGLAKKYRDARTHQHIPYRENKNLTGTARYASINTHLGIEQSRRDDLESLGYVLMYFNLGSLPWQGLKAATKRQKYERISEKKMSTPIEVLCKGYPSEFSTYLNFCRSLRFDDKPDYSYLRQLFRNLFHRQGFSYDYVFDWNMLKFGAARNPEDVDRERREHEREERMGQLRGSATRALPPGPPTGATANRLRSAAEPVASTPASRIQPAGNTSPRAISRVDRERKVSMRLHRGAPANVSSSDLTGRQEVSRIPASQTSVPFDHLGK
Serine/threonine-protein kinase Chk2 (Homo sapiens), sequence (O96017 whole entry): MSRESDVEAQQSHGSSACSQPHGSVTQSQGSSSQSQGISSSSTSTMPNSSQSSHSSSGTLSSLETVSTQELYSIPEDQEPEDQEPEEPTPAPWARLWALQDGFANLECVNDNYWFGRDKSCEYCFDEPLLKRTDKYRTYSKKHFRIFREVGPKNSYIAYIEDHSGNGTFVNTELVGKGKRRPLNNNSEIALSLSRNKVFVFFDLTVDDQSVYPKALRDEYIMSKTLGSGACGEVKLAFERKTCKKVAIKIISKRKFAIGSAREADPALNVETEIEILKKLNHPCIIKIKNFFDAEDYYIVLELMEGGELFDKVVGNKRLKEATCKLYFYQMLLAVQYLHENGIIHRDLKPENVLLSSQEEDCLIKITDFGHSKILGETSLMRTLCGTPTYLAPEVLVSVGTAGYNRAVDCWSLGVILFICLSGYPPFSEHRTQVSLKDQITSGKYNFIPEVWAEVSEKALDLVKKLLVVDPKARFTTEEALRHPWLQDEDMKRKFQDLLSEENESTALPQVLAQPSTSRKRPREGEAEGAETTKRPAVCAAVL
Vascular endothelial growth factor receptor 1 (Homo sapiens), sequence (P17948 whole entry): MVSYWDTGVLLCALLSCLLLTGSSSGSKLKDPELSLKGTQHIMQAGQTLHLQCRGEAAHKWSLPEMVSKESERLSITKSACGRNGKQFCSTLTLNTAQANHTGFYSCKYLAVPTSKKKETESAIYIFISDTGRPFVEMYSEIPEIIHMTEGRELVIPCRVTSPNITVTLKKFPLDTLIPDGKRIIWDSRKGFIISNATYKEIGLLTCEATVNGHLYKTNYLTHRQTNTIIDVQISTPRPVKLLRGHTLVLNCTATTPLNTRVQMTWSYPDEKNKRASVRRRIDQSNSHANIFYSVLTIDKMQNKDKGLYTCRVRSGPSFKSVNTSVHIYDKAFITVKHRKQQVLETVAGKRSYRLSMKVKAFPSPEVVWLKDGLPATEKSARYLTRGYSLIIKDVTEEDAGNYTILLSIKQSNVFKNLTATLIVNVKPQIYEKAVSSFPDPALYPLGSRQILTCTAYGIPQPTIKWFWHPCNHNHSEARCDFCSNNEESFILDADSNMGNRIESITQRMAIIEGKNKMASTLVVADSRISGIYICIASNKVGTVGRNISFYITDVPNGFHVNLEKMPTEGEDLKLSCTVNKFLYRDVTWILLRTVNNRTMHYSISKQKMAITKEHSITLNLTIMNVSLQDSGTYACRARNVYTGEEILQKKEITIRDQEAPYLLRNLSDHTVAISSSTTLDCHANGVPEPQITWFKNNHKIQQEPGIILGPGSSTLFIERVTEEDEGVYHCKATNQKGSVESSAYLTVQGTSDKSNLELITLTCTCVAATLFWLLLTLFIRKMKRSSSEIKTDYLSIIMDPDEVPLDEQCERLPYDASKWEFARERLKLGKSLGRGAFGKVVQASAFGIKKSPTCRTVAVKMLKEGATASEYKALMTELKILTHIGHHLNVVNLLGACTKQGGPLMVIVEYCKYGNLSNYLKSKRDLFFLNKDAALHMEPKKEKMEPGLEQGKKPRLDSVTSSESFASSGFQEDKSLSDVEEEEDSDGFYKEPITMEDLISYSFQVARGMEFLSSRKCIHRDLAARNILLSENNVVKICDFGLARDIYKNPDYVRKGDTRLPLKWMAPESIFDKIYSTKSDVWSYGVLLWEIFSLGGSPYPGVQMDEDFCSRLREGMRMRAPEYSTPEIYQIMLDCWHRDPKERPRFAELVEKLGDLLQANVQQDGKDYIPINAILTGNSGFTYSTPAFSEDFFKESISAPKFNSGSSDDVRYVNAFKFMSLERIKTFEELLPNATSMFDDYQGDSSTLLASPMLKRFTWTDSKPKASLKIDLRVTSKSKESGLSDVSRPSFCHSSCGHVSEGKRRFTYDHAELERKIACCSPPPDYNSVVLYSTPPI

Row | delta Tm Staurosporine positive control [1] | ΔTm [1] | delta Tm Staurosporine positive control [2] | ΔTm [2] | delta Tm Staurosporine positive control [3] | ΔTm [3] | delta Tm Staurosporine positive control [4] | ΔTm [4] | delta Tm Staurosporine positive control [5] | ΔTm [5] | delta Tm Staurosporine positive control [6] | ΔTm [6] | delta Tm Staurosporine positive control [7] | ΔTm [7] | delta Tm Staurosporine positive control [8] | ΔTm [8] | delta Tm Staurosporine positive control [9] | ΔTm [9] | delta Tm Staurosporine positive control [10] | ΔTm [10] | SMILES | other results
1 | 16.7 | -0.718 | 8.98 | 0.13 | 10.8 | 0.427 | 3.96 | 0.244 | 15.8 | 0.492 | 11.1 | -0.0497 | 18.7 | 0.214 | 13.3 | -0.0351 | 14.2 | 0 | 3.74 | 0.508 | COC[C@H](NC(=O)c1ccn(S(C)(=O)=O)c1)C(=O)Nc1nc(-c2cccc(-c3ccn(C)n3)c2)cs1 | delta Tm Staurosporine positive control [11]: 1.69; ΔTm [11]: 0.0581; inhibition [12]: 16.7%; inhibition [13]: 8.9%; inhibition [14]: -5.17%; inhibition [15]: 1.42%
2 | 16.7 | -1.06 | 8.98 | 0.273 | 10.8 | 0.342 | 3.96 | 0.39 | 15.8 | 0.462 | 11.1 | -0.217 | 18.7 | 0.335 | 13.3 | 0.371 | 14.2 | 0 | 3.74 | 0.73 | C[C@H](NC(=O)c1cn(C2(C#N)CC2)cn1)C(=O)Nc1nc(-c2cccc(-c3ccn(C)n3)c2)cs1 | delta Tm Staurosporine positive control [11]: 1.69; ΔTm [11]: -0.558; inhibition [12]: 36%; inhibition [13]: 16.4%; inhibition [14]: 8%; inhibition [15]: -5.95%
